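Cultured in 96-well plates, cells were exposed to test compound for 48 hours across five concentrations. Here, GI50 denotes the concentration required for 50% inhibition of growth. Definition used: TGI = concentration required for complete inhibition of growth.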
Columns and labels:
Experiment in all cases: inhibition of tumour cell growth, NCI panel, 48 h
786-0 renal = system: 786-0 renal
A498 renal = system: A498 renal
A549 NSCLC = system: A549 NSCLC
ACHN renal = system: ACHN renal
BT-549 breast = system: BT-549 breast
CCRF-CEM leukemia = system: CCRF-CEM leukemia
DU-145 prostate = system: DU-145 prostate
EKVX NSCLC = system: EKVX NSCLC
HCC-2998 colon = system: HCC-2998 colon
HCT-116 colon = system: HCT-116 colon
HCT-15 colon = system: HCT-15 colon
HL-60(TB) leukemia = system: HL-60(TB) leukemia
HOP-62 NSCLC = system: HOP-62 NSCLC
HOP-92 NSCLC = system: HOP-92 NSCLC
HS 578T breast = system: HS 578T breast
HT29 colon = system: HT29 colon
IGROV1 ovarian = system: IGROV1 ovarian
KM12 colon = system: KM12 colon
LOX IMVI melanoma = system: LOX IMVI melanoma
MCF7 breast = system: MCF7 breast
MDA-MB-231 breast = system: MDA-MB-231 breast
MOLT-4 leukemia = system: MOLT-4 leukemia
NCI-H226 lung = system: NCI-H226 lung
NCI-H23 lung = system: NCI-H23 lung
NCI-H460 lung = system: NCI-H460 lung
NCI-H522 lung = system: NCI-H522 lung
NCI/ADR-RES ovarian = system: NCI/ADR-RES ovarian
OVCAR-3 ovarian = system: OVCAR-3 ovarian
OVCAR-4 ovarian = system: OVCAR-4 ovarian
OVCAR-5 ovarian = system: OVCAR-5 ovarian
OVCAR-8 ovarian = system: OVCAR-8 ovarian
PC-3 prostate = system: PC-3 prostate
SF-268 CNS = system: SF-268 CNS
SF-295 CNS = system: SF-295 CNS
SF-539 CNS = system: SF-539 CNS
SK-MEL-2 melanoma = system: SK-MEL-2 melanoma
SK-MEL-28 melanoma = system: SK-MEL-28 melanoma
SK-MEL-5 melanoma = system: SK-MEL-5 melanoma
SK-OV-3 ovarian = system: SK-OV-3 ovarian
SN12C renal = system: SN12C renal
SNB-19 CNS = system: SNB-19 CNS
SR leukemia = system: SR leukemia
SW-620 colon = system: SW-620 colon
T-47D breast = system: T-47D breast
TK-10 renal = system: TK-10 renal
U251 CNS = system: U251 CNS
UACC-62 melanoma = system: UACC-62 melanoma
UO-31 renal = system: UO-31 renal

Work on CCOC(=O)c1cc(C(=O)c2cc(OC)c(OC)c(OC)c2)n2nc(C)ccc12 yielded a GI50 (786-0 renal) of 335 nM, a TGI (786-0 renal) of over 100 µM and a GI50 (A498 renal) of 76.2 nM. For the same compound, the TGI (A498 renal) was 931 nM, the GI50 (A549 NSCLC) was 223 nM and the TGI (A549 NSCLC) was over 100 µM. For the same compound, the GI50 (ACHN renal) was 524 nM, the TGI (ACHN renal) was over 100 µM and the GI50 (BT-549 breast) was 878 nM. For the same compound, the TGI (BT-549 breast) was over 100 µM, the GI50 (CCRF-CEM leukemia) was 212 nM and the TGI (CCRF-CEM leukemia) was over 100 µM. The GI50 (DU-145 prostate) was 391 nM, the TGI (DU-145 prostate) was over 100 µM and the GI50 (EKVX NSCLC) was 479 nM. It also gave a TGI (EKVX NSCLC) of over 100 µM, a GI50 (HCC-2998 colon) of 493 nM and a TGI (HCC-2998 colon) of over 100 µM. The GI50 (HCT-116 colon) was 164 nM, the TGI (HCT-116 colon) was over 100 µM and the GI50 (HCT-15 colon) was 84.4 nM. It also gave a TGI (HCT-15 colon) of over 100 µM, a GI50 (HL-60(TB) leukemia) of 160 nM and a TGI (HL-60(TB) leukemia) of 588 nM. It also gave a GI50 (HOP-62 NSCLC) of 398 nM, a TGI (HOP-62 NSCLC) of over 100 µM and a GI50 (HOP-92 NSCLC) of 3.52 µM. It also gave a TGI (HOP-92 NSCLC) of over 100 µM, a GI50 (HS 578T breast) of 190 nM and a TGI (HS 578T breast) of over 100 µM. It also gave a GI50 (HT29 colon) of 133 nM, a TGI (HT29 colon) of over 100 µM and a GI50 (IGROV1 ovarian) of 379 nM. It also gave a TGI (IGROV1 ovarian) of over 100 µM, a GI50 (KM12 colon) of 57.7 nM and a TGI (KM12 colon) of over 100 µM. For the same compound, the GI50 (LOX IMVI melanoma) was 498 nM, the TGI (LOX IMVI melanoma) was over 100 µM and the GI50 (MCF7 breast) was 48.1 nM. For the same compound, the TGI (MCF7 breast) was over 100 µM, the GI50 (MDA-MB-231 breast) was 524 nM and the TGI (MDA-MB-231 breast) was over 100 µM. For the same compound, the GI50 (MOLT-4 leukemia) was 396 nM, the TGI (MOLT-4 leukemia) was over 100 µM and the GI50 (NCI-H226 lung) was 45 µM. For the same compound, the TGI (NCI-H226 lung) was over 100 µM, the GI50 (NCI-H23 lung) was 418 nM and the TGI (NCI-H23 lung) was over 100 µM. The GI50 (NCI-H460 lung) was 133 nM, the TGI (NCI-H460 lung) was over 100 µM and the GI50 (NCI-H522 lung) was 171 nM. It also gave a TGI (NCI-H522 lung) of over 100 µM, a GI50 (NCI/ADR-RES ovarian) of 123 nM and a TGI (NCI/ADR-RES ovarian) of 1930 nM. For the same compound, the GI50 (OVCAR-3 ovarian) was 64.8 nM, the TGI (OVCAR-3 ovarian) was 1270 nM and the GI50 (OVCAR-4 ovarian) was 1720 nM. It also gave a TGI (OVCAR-4 ovarian) of over 100 µM, a GI50 (OVCAR-5 ovarian) of 472 nM and a TGI (OVCAR-5 ovarian) of over 100 µM. For the same compound, the GI50 (OVCAR-8 ovarian) was 518 nM, the TGI (OVCAR-8 ovarian) was over 100 µM and the GI50 (PC-3 prostate) was 93.9 nM. It also gave a TGI (PC-3 prostate) of over 100 µM, a GI50 (SF-268 CNS) of 550 nM and a TGI (SF-268 CNS) of over 100 µM. The GI50 (SF-295 CNS) was 65.7 nM, the TGI (SF-295 CNS) was over 100 µM and the GI50 (SF-539 CNS) was 130 nM. The TGI (SF-539 CNS) was 771 nM, the GI50 (SK-MEL-2 melanoma) was 495 nM and the TGI (SK-MEL-2 melanoma) was over 100 µM. For the same compound, the GI50 (SK-MEL-28 melanoma) was 12 µM, the TGI (SK-MEL-28 melanoma) was over 100 µM and the GI50 (SK-MEL-5 melanoma) was 58.5 nM. The TGI (SK-MEL-5 melanoma) was 3.32 µM, the GI50 (SK-OV-3 ovarian) was 546 nM and the TGI (SK-OV-3 ovarian) was over 100 µM. It also gave a GI50 (SN12C renal) of 665 nM, a TGI (SN12C renal) of over 100 µM and a GI50 (SNB-19 CNS) of 420 nM. The TGI (SNB-19 CNS) was over 100 µM, the GI50 (SR leukemia) was 48.1 nM and the TGI (SR leukemia) was over 100 µM. The GI50 (SW-620 colon) was 68.7 nM, the TGI (SW-620 colon) was over 100 µM and the GI50 (T-47D breast) was over 100 µM. For the same compound, the TGI (T-47D breast) was over 100 µM, the GI50 (TK-10 renal) was over 100 µM and the TGI (TK-10 renal) was over 100 µM. For the same compound, the GI50 (U251 CNS) was 331 nM, the TGI (U251 CNS) was over 100 µM and the GI50 (UACC-62 melanoma) was 61.5 nM. For the same compound, the TGI (UACC-62 melanoma) was over 100 µM, the GI50 (UO-31 renal) was 452 nM and the TGI (UO-31 renal) was over 100 µM.
